B1: Placental lactogen: human chorionic sommatomammotropin (aka placental lactogen) found in HuMATRIX (protein, UniProt P0DML2 27-217, looked up)
Chorionic somatomammotropin …: VQTVPLSRLFDHAMLQAHRAHQLAIDTYQEFEETYIPKDQKYSFLHDSQTSFCFSDSIPTPSNMEETQQKSNLELLRISLLLIESWLEPVRFLRSMFANNLVYDTSDSDDYHLLKDLEEGIQTLMGRLEDGSRRTGQILKQTYSKFDTNSHNHDALLKNYGLLYCFRKDMDKVETFLRMVQCRSVEGSCGF

What was measured:
[1] = system: dorsal root ganglia (DRGs); assay: Dorsal root ganglia attachment and growth on substrates; type: cell-based
Procedure: The ability for ectodermal cell attachment and growth on HuMATRIX was also assessed using dorsal root ganglia (DRGs). Near 100% attachment of DRGs was observed on HuMATRIX, Laminin, and decellularized placenta with urea extraction, but nearly no DRGs attached to culture plastic alone, with the cells stained for beta-III-tubulin and DAPI to assess the cell morphology.

MCF7 tumor cell = settings: reported in the literature; cited from earlier work

Molecule	attachment of DRGs [1] [%]	increase in MCF7 tumor cell proliferation (MCF7 tumor cell) [fold]
Laminin	~100	–
B1	–	4.4

Reference: patent US11655448B2, “Placenta-derived matrix and methods of preparing and use thereof” (LIFENET HEALTH, priority 2015, dated 2023)
